{"source": "the Kinase Knowledgebase extract (Sharma et al. 2016)", "data": [{"target": "CDK2 (UniProt P24941)", "assay": "Enzyme Assay", "units": {"IC50": "nM"}, "values": [{"smiles": "CC(C)C(=O)N1CCn2cc(C3=C(c4cnc5ccccn45)C(=O)NC3=O)c3cccc(c32)C1", "IC50": 3560}, {"smiles": "O=C1NC(=O)C(c2cn3c4c(cccc24)CNCC3)=C1c1ccc2c(c1)OCO2", "IC50": 1130}, {"smiles": "O=C1NC(=O)C(c2cnn3ccccc23)=C1c1cn2c3c(cccc13)CN(C(=O)N1CCOCC1)CC2", "IC50": 3030}, {"smiles": "O=C1NC(=O)C(c2cnc3ncccn23)=C1c1cn2c3c(cccc13)CN(C(=O)N1CCCCC1)CC2", "IC50": "> 20000"}, {"smiles": "CN(C)C(=O)N1CCn2cc(C3=C(c4cncc5ccoc45)C(=O)NC3=O)c3cccc(c32)C1", "IC50": 15.6}, {"smiles": "CC(=O)N1CCn2cc(C3=C(c4cccc5ccoc45)C(=O)NC3=O)c3cccc(c32)C1", "IC50": 10.5}, {"smiles": "O=C1NC(=O)C(c2cccc3ccoc23)=C1c1cn2c3c(cccc13)CNCC2", "IC50": 10.2}, {"smiles": "CCC(=O)N1CCn2cc(C3=C(c4cncc5ccoc45)C(=O)NC3=O)c3cccc(c32)C1", "IC50": 13}, {"smiles": "CN(C)C(=O)N1CCn2cc(C3=C(c4cccc5c4OCO5)C(=O)NC3=O)c3cccc(c32)C1", "IC50": 445}, {"smiles": "O=C1NC(=O)C(c2cn3c4c(cccc24)CNCC3)=C1c1cccc2c1OCC2", "IC50": 33}, {"smiles": "O=C1NC(=O)C(c2cnc3ccccn23)=C1c1cn2c3c(cccc13)CNCC2", "IC50": 756}, {"smiles": "O=C1NC(=O)C(c2cnc3cnccn23)=C1c1cn2c3c(cccc13)CN(C(=O)N1CCCCC1)CC2", "IC50": "> 20000"}, {"smiles": "Cn1ccc2c(C3=C(c4cn5c6c(cccc46)CNCC5)C(=O)NC3=O)cccc21", "IC50": 363}, {"smiles": "CC(=O)N1CCn2cc(C3=C(c4cccc5c4OCO5)C(=O)NC3=O)c3cccc(c32)C1", "IC50": 60}, {"smiles": "CC(=O)N1CCn2cc(C3=C(c4cncc5ccoc45)C(=O)NC3=O)c3cccc(c32)C1", "IC50": 8.1}, {"smiles": "O=C1NC(=O)C(c2cnc3ncccn23)=C1c1cn2c3c(cccc13)CN(C(=O)N1CCOCC1)CC2", "IC50": "> 20100"}, {"smiles": "O=C1NC(=O)C(c2cn3c4c(cccc24)CNCC3)=C1c1cccc2occc12", "IC50": 205}, {"smiles": "O=C1NC(=O)C(c2cnn3ccccc23)=C1c1cn2c3c(cccc13)CNCC2", "IC50": 750}, {"smiles": "O=C1NC(=O)C(c2cncc3ccoc23)=C1c1cn2c3c(cccc13)CNCC2", "IC50": 6.4}, {"smiles": "O=C1NC(=O)C(c2cnc3cnccn23)=C1c1cn2c3c(cccc13)CN(C(=O)N1CCOCC1)CC2", "IC50": "> 20200"}, {"smiles": "O=C1NC(=O)C(c2cnc3cnccn23)=C1c1cn2c3c(cccc13)CNCC2", "IC50": 5580}, {"smiles": "O=C1NC(=O)C(c2cncc3ccoc23)=C1c1cn2c3c(cccc13)CN(C(=O)N1CCOCC1)CC2", "IC50": 39.2}, {"smiles": "CC(=O)N1CCn2cc(C3=C(c4cccc5c4OCC5)C(=O)NC3=O)c3cccc(c32)C1", "IC50": 17.6}, {"smiles": "O=C1NC(=O)C(c2cnc3ccncn23)=C1c1cn2c3c(cccc13)CNCC2", "IC50": 7590}, {"smiles": "O=C1NC(=O)C(c2cccc3ccsc23)=C1c1cn2c3c(cccc13)CNCC2", "IC50": 90}, {"smiles": "O=C1NC(=O)C(c2cnc3ccncn23)=C1c1cn2c3c(cccc13)CN(C(=O)N1CCOCC1)CC2", "IC50": "> 20000"}, {"smiles": "O=C1NC(=O)C(c2cnc3cccnn23)=C1c1cn2c3c(cccc13)CNCC2", "IC50": 67.2}, {"smiles": "O=C1NC(=O)C(c2cnc3ccccn23)=C1c1cn2c3c(cccc13)CN(C(=O)C1CCOCC1)CC2", "IC50": 5500}, {"smiles": "O=C1NC(=O)C(c2cncc3ccoc23)=C1c1cn2c3c(cccc13)CN(C(=O)N1CCCCC1)CC2", "IC50": 35.7}, {"smiles": "O=C1NC(=O)C(c2cnc3ncccn23)=C1c1cn2c3c(cccc13)CNCC2", "IC50": 8760}, {"smiles": "CN(C)C(=O)N1CCn2cc(C3=C(c4cnn5ccccc45)C(=O)NC3=O)c3cccc(c32)C1", "IC50": 2200}, {"smiles": "CC(=O)N1CCn2cc(C3=C(c4cnc5ccccn45)C(=O)NC3=O)c3cccc(c32)C1", "IC50": 629}, {"smiles": "CN(C)C(=O)N1CCn2cc(C3=C(c4cccc5ccoc45)C(=O)NC3=O)c3cccc(c32)C1", "IC50": 67.5}, {"smiles": "O=C1NC(=O)C(c2cnc3cccnn23)=C1c1cn2c3c(cccc13)CN(C(=O)N1CCCCC1)CC2", "IC50": 434}, {"smiles": "CC(C)C(=O)N1CCn2cc(C3=C(c4cnn5ccccc45)C(=O)NC3=O)c3cccc(c32)C1", "IC50": 1630}, {"smiles": "O=C1NC(=O)C(c2cn3c4c(cccc24)CNCC3)=C1c1cccc2c1OCO2", "IC50": 91}, {"smiles": "CC(=O)N1CCn2cc(C3=C(c4cccc5ccsc45)C(=O)NC3=O)c3cccc(c32)C1", "IC50": 76}, {"smiles": "O=C1NC(=O)C(c2cn3c4c(cccc24)CNCC3)=C1c1cccc2c1ccn2CCCO", "IC50": 297}]}]}
